The results in this text go back to US10105414B2, “Peptides derived from RS1 which down-regulate glucose absorption after a glucose rich meal and increase insulin sensitivity” (Julius-Maximilians-Universität Würzburg, priority 2014, dated 2018).

As a reminder, the IC50 is the concentration that inhibits the measured activity by half.

Read-outs that look alike come from different tables or passages of the source.

The target of test [1] is T1, ODC (Homo sapiens, UniProt P11926).
T1 sequence (P11926 1-461): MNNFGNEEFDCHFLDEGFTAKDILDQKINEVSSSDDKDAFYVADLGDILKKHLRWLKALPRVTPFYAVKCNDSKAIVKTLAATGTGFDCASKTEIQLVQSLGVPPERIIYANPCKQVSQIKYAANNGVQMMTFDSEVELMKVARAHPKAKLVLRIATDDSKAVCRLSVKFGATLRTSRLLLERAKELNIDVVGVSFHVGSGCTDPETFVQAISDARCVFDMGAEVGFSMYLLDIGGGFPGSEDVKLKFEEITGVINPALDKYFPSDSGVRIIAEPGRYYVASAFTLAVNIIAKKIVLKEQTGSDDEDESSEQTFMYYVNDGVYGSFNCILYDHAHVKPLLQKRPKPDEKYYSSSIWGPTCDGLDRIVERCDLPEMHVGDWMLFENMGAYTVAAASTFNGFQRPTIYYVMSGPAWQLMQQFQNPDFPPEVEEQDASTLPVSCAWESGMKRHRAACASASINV
Description: Activity of purified ODC (released CO2). The test is classed as biochemical. The settings on record: 100 μM tripeptide, 80 ng purified ODC, 1 h, 37° C.

Test [2] concerns hCNT3. Briefly: hCNT3-mediated uridine uptake in Xenopus laevis oocytes after injection of peptides. To be noted: low intracellular glucose, no AMG injected. Type of test: cell-based, human. On the procedure: FIG. 9. […] Posttransciptional downregulation of hCNT1 and hCNT3 was measured without injection of AMG. […] One hour later uptake of 5 μM [^3H]uridine was measured.
(§1) Before uptake measurements were started, 50 nl of K-Ori buffer containing peptides, polypeptides, 1 pM of calmodulin stimulated kinase 2 (CK2) inhibitor KN93 (Calbiochem San Diego. Calif.), 3 mM of the omithinedecarboxlase inhibitor difluoromethylornithine DFMO and/or or 100 pmol α-methyl-α-D-glucopyranoside (AMG) were injected and the oocytes were incubated for 1 h at room temperature. Uptake was measured in Ori buffer at room temperature. Measurements in transporter expressing oocytes were corrected for measurements in noninjected oocytes. Uptake of 50 μM [^14C]AMG was measured after 15 min incubation and washing in ice-cold Ori buffer containing 1 mM phlorizin. Uptake of 5 μM [^3H]uridine was measured after 15 min incubation and washing in ice-cold Ori buffer. Oocytes were solubilized in 5% (w/v) SDS and analyzed for radioactivity by scintillation counting.

For test [3] the following is noted: RS1−/− mice; gavage 20 μmol QEP before 40% D-glucose gavage. As to the method:
Blood (2 μL) was collected from the tail vein and analysed using the amperometric glucose oxidase method (glucose meter, ACCU-CHEK Aviva). Blood insulin-Insulin was determined using the rat C-peptide ELISA from Mercodia (Uppsala, Sweden) which is based on the sandwich technique using two monoclonal antibodies directed against two different antigenic determinants on the C-peptide.
(§2) After 2 h the animals were killed, their small intestines were everted and phlorizin inhibited uptake of 10 μM [^14C]AMG Into segments of the everted jejunum was measured (FIG. 12A).

Test [4] concerns mSGLT1. On the procedure: (§3) Standardised t areas of human small intestinal mucosa (FIGS. 13,19) or 1 cm segments of everted mouse small intestine (FIGS. 14,15,20) were washed three times at 37° C. with Krebs-Ringer buffer containing 5 mM D-glucose and incubated for 30 min at 37° C. in Krebs-Ringer buffer containing 5 mM D-glucose plus different concentrations of tripeptides. Thereafter the tissue was washed three times at 0° C. in Krebs-Ringer buffer without glucose and uptake measurements were performed.
(§4) For measurement of SGLT1 mediated glucose uptake, the everted segments of mouse small intestine or defined areas of human mucosa were incubated for 2 min at 37° C. with Krebs-Ringer buffer containing 10 μM [^14C]AMG with or without 0.2 mM phlorizin. Uptake was stopped by transferring the segments into ice cold Krebs-Ringer buffer containing 0.2 mM phlorizin for 5 min. After washing with ice cold Krebs-Ringer buffer the intestinal segments or pieces of human mucosa were dissolved in 0.5 ml Soluence-350) (Perkin Elmer Inc. Waltham Mass., USA). Radioactivity was analysed by liquid scintillation counting. Phlorizin inhibited AMG uptake per cm length or per standard area of the mucosa was calculated.
Thereafter the segments were washed with PBS buffer and phlorizin inhibited uptake of 10 μM [^14C]AMG was measured.

The test system of test [5] is hSGLT1. Briefly: hSGLT1-mediated AMG uptake in Xenopus laevis oocytes 1 h after injection of peptides. The test is classed as cell-based, human. To be noted: for down-regulation of hSGLT1 when putrescine was added: intracellular concentration 1 μM. On the procedure:
(§5) Selected oocytes were injected with 50 nl of water containing cRNAs (2.5 ng of hSGLT1 or 0.5 ng of hCNT1). For expression oocytes were incubated for 2-3 days at 16° C. in modified Barth's solution with gentamycin. Noninjected control oocytes were incubated in parallel.
as §1
(§6) For comparison of mean values from 2 groups the Student's t-test for unpaired samples was employed.

The test system of test [6] is hSGLT1. To be noted: 30 min; for down-regulation of hSGLT1 mediated AMG uptake: 5 mM D-glucose. As to the method:
Jejunal segments which were routinely dissected during bariatric operations of highly obese patients were stored for 1-3 h on ice in Dulbecco's modified Eagle's medium containing 5 mM D-glucose. The mucosa was isolated and circular areas of the mucosa were dissected using a punching instrument.
as §3, §4
Next, it was investigated which of the QXP-type tripeptides are capable to downregulate hSGLT1 expression in human small intestine in the presence of high glucose. Jejunal samples that were obtained during bariatric surgery of obese patients (males and females with a mean age of 50 years with a mean body mass index of 50) were used. […] A part of the jejumum which is routinely removed during bariatric surgery, was carried to the laboratory using ice-cold culture medium containing 6 mM D-glucose. Part of the mucosa was dissected and identical areas of the mucosa were isolated using a punching instrument. The mucosal pieces were washed with glucose free buffer and incubated for 30 min at 37° C. in tissue culture medium (pH 6.4) containing 5 mM D-glucose and different QXP-type tripeptides. Thereafter the sample were washed two times with PBS buffer (pH 7.4, 37° C.) and incubated for 2 min at 37° C. in PBS (pH 7.4) containing 100 mM sodium and 10 μM [^14C]AMG. The incubation was performed in the absence and presence of 200 μM of the SGLT1 inhibitor phlorizin. Thereafter the samples were washed with ice-cold PBS, the tissue was dissolved, and radioactivity was determined by liquid scintillation counting. The phorizin inhibited AMG uptake was calculated.

In test [7] the test system is hCNT1. Description: hCNT1-mediated uridine uptake in Xenopus laevis oocytes after injection of peptides. Type of test: cell-based, human. To be noted: for uptake of 5 μM [3H]uridine expressed by hCNT1: low intracellular glucose, no AMG injected. As to the method: as §5, §1, §6
The subject of test [8] is mSGLT1. The settings on record: RS1−/− mice starved over night; gavage 20 μmol per mouse; after 2 h. As to the method: as §4, §2
Test [9] has as its target T1, ODC. Description: Two-hybrid screening and immunocoprecipitation. The test is classed as binding. To be noted: data not shown. On the procedure: (§7) Employing two-hybrid screening and immunocoprecipitation experiments evidence was provided that hRS1-Reg binds to ODC (data not shown). It was shown that the release of SGLT1 containing vesicles from the Golgi apparatus was blocked by specific ODC Inhibitor difluoromethylornithine (DFMO) and that the DFMO effect was blunted when putrescine was added (FIG. 23A). Since hRS1-Reg and DFMO down-regulate hSGLT1 to a similar degree and the down-regulations were not additive, RS1-Reg and ODC employ the same pathway for down-regulation of hSGLT1.

Test [10] deals with T1, ODC. Briefly: ODC activity (released CO2) in HEK293 cells transfected with ODC. The test is classed as cell-based. Further details: expressed in transfected cells; host or cells: HEK293. On the procedure: FIG. 23. […] Expressed uptake of 25 μM [^14C]AMG was measured 1 h later as FIG. 2. In A-C mean value±SE of 24-30 oocytes from three independent experiments are presented. D) HEK293 cells were transiently transfected with ODC, ODC plus hRS1-Reg or with ODC plus control vector. […] In D and E mean values±SE from 3-5 independent experiments are indicated. ***P<0.001 for difference to controls measured by ANOVA with posthoc Tukey comparison.
as §7

Where [11] appears, read: without injection of AMG (intracellular AMG <10 μM).

With “PEQ: reverse tripeptide PEQ as control [reference compound]”, the “inhibition of ODC activity” value in test [1] was “not”.
For glutamine-glutamic acid-proline [QEP], the “uptake of 5 μM [3H]uridine expressed by hCNT3” value in test [2] was “not able to inhibit”. Also, the “inhibition of ODC activity” value in [1] was “about 40%”. For the same molecule, in test [3], the “plasma D-glucose 15 min after glucose gavage” value is “significantly reduced”. Moreover, the “effect on SGLT1 mediated AMG uptake, first series of experiments” value in test [4] is “no effect”. Also, under “NZO mice, 5 mM QEP in drinking water”, the insulin sensitivity result was “increased”. Where the note is “mouse, in vivo”, the “SGLT1-mediated AMG transport into enterocytes and glucose absorption during an OGTT” value is recorded as “not decreased”; the “decrease of basal concentration of insulin in the serum” value is 50%; the “increase and decrease of serum glucose after gavage with glucose” value was “no effect”; the “increase of serum insulin after gavage with glucose” value is “decreased”. For the same molecule, in test [5], the “affinity at high intracellular glucose higher than affinity of QSP at low intracellular glucose” value is “about 1000 times” and the “down-regulation of hSGLT1 when putrescine was added” value was “blunted”. The “degree of down-regulation of hSGLT1” value in test [5] (5 pM, intracellular AMG ~0.25 mM) is recorded as about 45%. Further, the “inhibition of SGLT1 mediated transport” value in test [5] (50 nM tripeptide, no AMG injected) is “inhibition”. Moreover, the “increase of affinity (decrease of IC50) for down-regulation of hSGLT1 at high versus low intracellular AMG” value in test [5] (intracellular AMG ~250 μM versus low) is recorded as “more than 15000 fold”. Besides, the “inhibition of SGLT1 expression” value in [5] (with injection of AMG (intracellular AMG ~0.25 mM)) is “about 50%”. For the same molecule, the “down-regulation / inhibition of hSGLT1-mediated AMG uptake” value in test [5] (setting [11]) is listed as “about 40%”. The half-maximal inhibitory concentration (IC50) in [5] (without injection of AMG (intracellular AMG <10 μM), read-out: IC50 for down-regulation of hSGLT1-mediated AMG uptake) is 7.9 nM. For the same molecule, the “down-regulation of hSGLT1 mediated AMG uptake” value in test [6] (0.1 mM) was “not statistically significant”. Moreover, the “down-regulation of hSGLT1 mediated AMG uptake” value in test [6] (0.5 mM) is reported as “not statistically significant”. In test [6] (1 mM), the “down-regulation of hSGLT1 mediated AMG uptake” value is 40%. In addition, in [6] (5 mM QEP in PBS without glucose, data not shown), the “SGLT1 mediated AMG uptake at low intracellular glucose” value is on record as “did not decrease”. The “down-regulation of hSGLT1 mediated AMG uptake” value in [6] (15 mM) turned out to be 75%. Further, the “uptake of 5 μM [3H]uridine expressed by hCNT1” value in [7] is on record as “not able to inhibit”. Moreover, the “decrease of phlorizin inhibited uptake of 10 μM [14C]AMG into everted jejunum” value in test [8] is reported as “about 30%”.

B1: hRS1-Reg: regulatory domain of RS1 from human comprising amino acids 16-98 of hRS1 (SEQ ID No. 6) (protein, listed as Homo sapiens)
chain: SSGQSPDVGNPMSLARSVSASVCPIKPSDSDRIEPKAVKALKASAEFQLNSEKKEHLSLQDLSDHASSADHAPTDQSPAMPMQ
For the molecule B1, in [9], the “binding to ODC” value is reported as “binds to ODC”. The “uptake of 5 μM [3H]uridine expressed by hCNT3” value in test [2] is given as “decreased”. Besides, the “down-regulation of hSGLT1 by hRS1-Reg together with DFMO” value in [5] (DFMO intracellular concentration 3 mM) is “not additive”. Besides, the “affinity for down-regulation of hSGLT1 when CK2 is blocked by inhibitor KN93” value in test [5] (co-injected KN93, no AMG injected) is “largely increased”. Besides, in [5] (co-injected KN93, with AMG), the “effect of intracellular AMG on the affinity for down-regulation of hSGLT1 after inhibition of CK2” value was “drastically decreased”. Moreover, the “down-regulation of hSGLT1 when putrescine was added” value in test [5] is on record as “blunted”. Besides, the “down-regulation / inhibition of hSGLT1-mediated AMG uptake” value in test [5] (setting [11]) is on record as “about 50%”. Further, the “ODC activity when hRS1-Reg was coexpressed” value in [10] is “decreased”. In test [7] (intracellular AMG 250 μM), the “effect of 250 μM intracellular AMG on affinity for down-regulation of hCNT1” value was “not altered”. The “uptake of 5 μM [3H]uridine expressed by hCNT1” value in [7] is on record as “decreased”. Besides, the “down-regulation of hCNT1” value in test [7] (without injection of AMG) was “about 50%”. Moreover, the half-inhibitory concentration (IC50) in test [7] (without injection of AMG, read-out: IC50 for down-regulation of hCNT1-mediated uridine uptake) is 126 ± 6 nM.
